Source: patent US6630499B1, “Control of arthropods in animals” (Aventis CropScience, S.A., priority 1998, dated 2003)

Key:
Type in all cases: in vivo
Emesis in treated cats = conditions: 20 mg/kg; for % Emesis: cats
Procedure: (§1) By the term “emesis” is meant vomiting. Generally an emetic substance elicits emesis in less than 24 hours after administration, usually less than 8 hours, more usually less than 2 hours. By the term “substantially non-emetic” is meant that, generally, when a compound or composition of the invention is administered to a population of animals, more than 70% (or at least ⅔) of the animals are free of emesis. Preferably, more than 80%, most preferably more than 90%, of said population is free of emesis.
(§2) In the animals treated with the compounds above, there was substantially no emesis after 2, 8 and 24 hours. Generally long-term control of fleas and ticks was provided in dogs. In the cats treated, there was commercially acceptable control of fleas for at least one day post treatment.
(§3) The compounds listed below were formulated and tested as described in Biological Example 1, again at the dosage level of active ingredient of 10 mg/kg in dogs and 20 mg/kg in cats. Results at 1 DPT (day post-treatment) are tabulated below, where the compound numbers are the same as those listed in Tables 1, 2, 4, 5, 6, 7, 8, 9, 10, 11, 12 and 13 hereinabove.

Emesis in treated dogs = conditions: 10 mg/kg; for % Emesis: dogs; for emesis: group of 3 dogs
Procedure: as §1, §2, §3

[1] = test system: ticks (Rhipicephalus sanguineus); experiment: Control of ticks on treated dogs (Biological Examples 1-3); conditions: 10 mg/kg; for % Control 1 DPT (Fleas/Ticks): Ticks: dogs, 30 mg/mL in 1:1 dimethyl sulfoxide/corn oil, 1 day post-treatment, versus placebo group
Procedure: (§4) All dogs were infested with cat fleas (Ctenocephalides felis) and with ticks (Rhipicephalus sanguineus) 1 day prior to administration of the compound. Cats were only infested with fleas. The initial flea and tick counts were performed 1 day after the administration of the compounds. At 7, 14, 21 and 28 days after treatment the dogs were re-infested with ticks and 8, 15, 22 and 29 days after treatment the dogs and cats were re-infested with fleas. At 1, 9, 16, 23 and 30 days after treatment the control of fleas and ticks in treated dogs and cats was determined versus a group of infested dogs and cats which received a placebo consisting of a 1:1 volume/volume solution of dimethyl sulfoxide and corn oil. To determine the efficacies of the compounds, the arthropods were combed from the animals and counted.
as §3
(§5) Testing was carried out as described in Biological Example 1. […] The Huang et al compound was deemed to have insufficient activity to be tested in cats.

[2] = test system: cat fleas (Ctenocephalides felis); experiment: Control of cat fleas on treated dogs (Biological Examples 1-3); conditions: 10 mg/kg; for % Control 1 DPT (Fleas/Ticks): Fleas: dogs, 30 mg/mL in 1:1 dimethyl sulfoxide/corn oil, 1 day post-treatment, versus placebo group
Procedure: as §4, §3, §5

[3] = test system: cat fleas (Ctenocephalides felis); experiment: Control of cat fleas on treated cats (Biological Examples 1-3); conditions: 20 mg/kg; for % Control 1 DPT (Fleas): cats, 30 mg/mL in 1:1 dimethyl sulfoxide/corn oil, 1 day post-treatment, versus placebo group
Procedure: as §4, §3, §5

Row | Compound | % Emesis (Emesis in treated cats) | % Emesis (Emesis in treated dogs) | % Control 1 DPT (Fleas/Ticks): Ticks [1] | % Control 1 DPT (Fleas/Ticks): Fleas [2] | % Control 1 DPT (Fleas) [3] | further results
1 | CN(C(=O)C1CCCO1)c1c([S+]([O-])C(F)(F)F)c(C#N)nn1-c1c(Cl)cc(C(F)(F)F)cc1Cl (mixture of isomers) [Compound 1-9] | 0% | 0% | 100/100% | 100/100% | 100% | 
2 | CCOC(C)C(=O)N(C)c1c([S+]([O-])C(F)(F)F)c(C#N)nn1-c1c(Cl)cc(C(F)(F)F)cc1Cl (mixture of isomers) [Compound 122-1] |  | 0% | 95% | 100% |  | 
3 | CN(C(=O)C1CCCO1)c1c(SC(F)(F)F)c(C#N)nn1-c1c(Cl)cc(C(F)(F)F)cc1Cl (racemic) [Compound 1-7] | 25% | 0% | 97% | 100% | 100% | 
4 | CN(C(=O)C1CCCO1)c1c(S(=O)(=O)C(F)(F)F)c(C#N)nn1-c1c(Cl)cc(C(F)(F)F)cc1Cl (racemic) [Compound 1-11] | 0% | 0% | 100/100% | 100/100% | 98% | 
5 | CCOCC(=O)N(C)c1c([S+]([O-])C(F)(F)F)c(C#N)nn1-c1c(Cl)cc(C(F)(F)F)cc1Cl (racemic) [Compound 3-3] | 0% | 0% | 98% | 100% | 100% | 
6 | N#Cc1nn(-c2c(Cl)cc(C(F)(F)F)cc2Cl)c(N(C(=O)C2CCCO2)C2CC2)c1S(=O)(=O)C(F)(F)F (racemic) [Compound 6-11] | 0% | 0% | 98% | 100% | 98% | 
7 | N#Cc1nn(-c2c(Cl)cc(C(F)(F)F)cc2Cl)c(N(CC2CC2)C(=O)C2CCCO2)c1S(=O)(=O)C(F)(F)F (racemic) [Compound 7-11] | 0% | 0% | 100/100% | 100/100% | 100% | 
8 | CCOC(C)C(=O)N(C)c1c(SC(F)(F)F)c(C#N)nn1-c1c(Cl)cc(C(F)(F)F)cc1Cl (racemic) [Compound 116-1] | 0% | 0% | 100% | 79% | 100% | 
9 | CN(C(=O)C1CCCCO1)c1c(SC(F)(F)F)c(C#N)nn1-c1c(Cl)cc(C(F)(F)F)cc1Cl (racemic) [Compound 121-1] | 0% |  |  |  | 100% | 
10 | CN(C(=O)C1CCCO1)c1c(SC(F)(F)F)c(C#N)nn1-c1c(Cl)cc(C(F)(F)F)cc1Cl [(R)1-7] | 0% |  |  |  | 100% | 
11 | CN(C(=O)C1CCCO1)c1c(SC(F)(F)F)c(C#N)nn1-c1c(Cl)cc(C(F)(F)F)cc1Cl [(S)1-7] | 0% |  |  |  | 99% | 
12 | CC(=O)N(C)c1c(SC(F)(F)F)c(C#N)nn1-c1c(Cl)cc(C(F)(F)F)cc1Cl [Compound 1-1] | 0% | 0% | 82% | 91% | 99% | 
13 | CC(=O)N(C)c1c(S(=O)(=O)C(F)(F)F)c(C#N)nn1-c1c(Cl)cc(C(F)(F)F)cc1Cl [Compound 1-5] | 33% | 0% | 84% | 98% | 0% | 
14 | COCC(=O)N(C)c1c(SC(F)(F)F)c(C#N)nn1-c1c(Cl)cc(C(F)(F)F)cc1Cl [Compound 2-1, 1-(2,6-dichloro-4-trifluoromethylphenyl)-3-cyano-4-trifluoromethylthio-5-(N-methyl)methoxyacetamidopyrazole] | 0% | 0% | 100/100% | 100/100% | 100% | vomiting (Emesis in treated cats; group of 4 cats): no vomiting; emesis (Emesis in treated dogs): no emesis (0/3); control of ticks at 30 DPT ([1]; group of 3 dogs, 30 DPT): 100%; control of fleas at 30 DPT ([2]; group of 3 dogs, 30 DPT): 93%; control of fleas for at least a one month period ([3]; group of 4 cats, at least one month): 100%
15 | COCC(=O)N(C)c1c([S+]([O-])C(F)(F)F)c(C#N)nn1-c1c(Cl)cc(C(F)(F)F)cc1Cl (stereo not shown) [Compound 2-3] | 0% | 33% | 99% | 100% | 100% | 
16 | N#Cc1nn(-c2c(Cl)cc(C(F)(F)F)cc2Cl)c(N(CC2CC2)C(=O)C2CCCO2)c1SC(F)(F)F (stereo not shown) [Compound 7-7] |  | 0% | 66% | 29% |  | 
17 | CCOCC(=O)N(CC1CC1)c1c(S(=O)(=O)C(F)(F)F)c(C#N)nn1-c1c(Cl)cc(C(F)(F)F)cc1Cl [Compound 28-5] |  | 0% | 74% | 100% |  | 
18 | COCCC(=O)N(C)c1c(SC(F)(F)F)c(C#N)nn1-c1c(Cl)cc(C(F)(F)F)cc1Cl [Compound 37-1] | 0% |  |  |  | 76% | 
19 | CCOCCC(=O)N(C)c1c(SC(F)(F)F)c(C#N)nn1-c1c(Cl)cc(C(F)(F)F)cc1Cl [Compound 38-1] | 0% |  |  |  | 87% | 
20 | CCCOC(=O)N(CCC)c1c(SC(F)(F)F)c(C#N)nn1-c1c(Cl)cc(C(F)(F)F)cc1Cl [Compound 78-1] |  | 0% | 94% | 96% |  | 
21 | CN(C(=O)C1CC1)c1c(SC(F)(F)F)c(C#N)nn1-c1c(Cl)cc(C(F)(F)F)cc1Cl [Compound 117-1] | 0% |  |  |  | 45% | 
22 | CCOC(C)(C)C(=O)N(C)c1c(SC(F)(F)F)c(C#N)nn1-c1c(Cl)cc(C(F)(F)F)cc1Cl [Compound 119-1] | 0% |  |  |  | 99% | 
23 | CCCC(=O)N(C)c1c(SC(F)(F)F)c(C#N)nn1-c1c(Cl)cc(C(F)(F)F)cc1Cl [Compound 124-1] | 0% |  |  |  | 92% | 
24 | N#Cc1nn(-c2c(Cl)cc(C(F)(F)F)cc2Cl)c(N=CNCC(F)(F)F)c1SC(F)(F)F [Compound 211-1] |  | 0% | 51% | 99% |  | 
25 | N#Cc1nn(-c2c(Cl)cc(C(F)(F)F)cc2Cl)c(N=CNCc2ccccc2)c1SC(F)(F)F [Compound 224] |  | 0% | 6% | 38% |  | 
26 | COCC(=O)Nc1c(SC(F)(F)F)c(C#N)nn1-c1c(Cl)cc(C(F)(F)F)cc1Cl [Huang et al compound, 1-(2,6-dichloro-4-trifluoromethylphenyl)-3-cyano-4-trifluoromethylthio-5-(methoxyacetamido)pyrazole, reference compound] |  |  |  |  |  | emesis (Emesis in treated dogs): no emesis (0/3); control of ticks after 9 DPT ([1]; group of 3 dogs, 9 DPT): < 50%; control of fleas after 9 DPT ([2]; group of 3 dogs, 9 DPT): < 50%
